Laboratory results: patent US6849644B2, “Isoquinoline derivatives useful in the treatment of CNS disorders” (SmithKline Beecham p.l.c., priority 2000, dated 2005)
Where a name gives a salt, the structure may show the parent alone.

Each compound was assayed against T1, human cloned 5-HT6 receptors (Homo sapiens, UniProt P50406) (assay: 5-HT6 receptor binding affinity (procedures outlined in WO 98/27081)).
T1 construct: expressed in transfected cells
Source text: Compounds can be tested following the procedures outlined in WO 98/27081.

T1 sequence (P50406 whole entry): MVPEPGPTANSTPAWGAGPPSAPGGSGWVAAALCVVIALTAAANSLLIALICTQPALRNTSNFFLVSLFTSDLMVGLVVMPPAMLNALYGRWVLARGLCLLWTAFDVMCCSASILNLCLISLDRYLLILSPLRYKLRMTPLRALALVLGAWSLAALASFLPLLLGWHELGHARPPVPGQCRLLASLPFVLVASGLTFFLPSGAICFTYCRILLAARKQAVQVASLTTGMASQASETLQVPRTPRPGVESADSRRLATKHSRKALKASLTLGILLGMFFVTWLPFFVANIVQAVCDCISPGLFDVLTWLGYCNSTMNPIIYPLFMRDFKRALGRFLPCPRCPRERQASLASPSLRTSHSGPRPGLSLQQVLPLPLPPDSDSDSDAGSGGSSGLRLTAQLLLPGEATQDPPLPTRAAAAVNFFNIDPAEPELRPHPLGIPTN

Ki, 1.26 to 6.31 nM:
COc1ccc2ccn(S(=O)(=O)c3ccc4c(c3)CNCC4)c2c1 [Example E19, 7-(6-Methoxy-indole-1-sulfonyl)-1,2,3,4-tetrahydro-isoquinoline]
Cc1cccc2c1ccn2S(=O)(=O)c1ccc2c(c1)CNCC2 [Example E21, 7-(4-Methyl-indole-1-sulfonyl)-1,2,3,4-tetrahydro-isoquinoline]
O=S(=O)(c1ccc2c(c1)CNCC2)n1ccc2ccccc21 [Example E1, 7-(Indole-1-sulfonyl)-1,2,3,4-tetrahydro-isoquinoline Hydrochloride]
O=S(=O)(c1ccc2c(c1)CNCC2)n1ccc2cc(F)c(F)cc21 [Example E23, 7-(5,6-Difluoro-indole-1-sulfonyl)-1,2,3,4-tetrahydro-isoquinoline]
O=S(=O)(c1ccc2c(c1)CNCC2)n1c2c(c3ccccc31)CCCC2 [Example E9, 9-(1,2,3,4-Tetrahydro-isoquinoline-7-sulfonyl)-2,3,4,9-tetrahydro-1H-carbazole]
O=S(=O)(c1ccc2c(c1)CNCC2)n1c(-c2ccccc2)cc2cc(F)ccc21 [Example E13, 7-(5-Fluoro-2-phenyl-indole-1-sulfonyl)-1,2,3,4-tetrahydro-isoquinoline]
Cc1cn(S(=O)(=O)c2ccc3c(c2)CNCC3)c2ccccc12 [Example E10, 7-(3-Methyl-indole-1-sulfonyl)-1,2,3,4-tetrahydro-isoquinoline]
O=S(=O)(c1ccc2c(c1)CNCC2)n1ccc2ccc(F)cc21 [Example E22, 7-(6-Fluoro-indole-1-sulfonyl)-1,2,3,4-tetrahydro-isoquinoline]
Cc1ccc2ccn(S(=O)(=O)c3ccc4c(c3)CNCC4)c2c1 [Example E20, 7-(6-Methyl-indole-1-sulfonyl)-1,2,3,4-tetrahydro-isoquinoline]
O=S(=O)(c1ccc2c(c1)CNCC2)n1ccc2c(Cl)cccc21 [Example E17, 7-(4-Chloro-indole-1-sulfonyl)-1,2,3,4-tetrahydro-isoquinoline]
O=S(=O)(c1ccc2c(c1)CNCC2)n1cc(-c2ccccc2)c2ccccc21 [Example E35, 7-(3-Phenyl-indole-1-sulfonyl)-1,2,3,4-tetrahydro-isoquinoline Hydrochloride]
O=S(=O)(c1ccc2c(c1)CNCC2)n1ccc2ccc(Cl)cc21 [Example E16, 7-(6-Chloro-indole-1-sulfonyl)-1,2,3,4-tetrahydro-isoquinoline]
O=S(=O)(c1ccc2c(c1)CNCC2)n1ccc2ccc(C(F)(F)F)cc21 [Example E24, 7-(6-Trifluoromethyl-indole-1-sulfonyl)-1,2,3,4-tetrahydro-isoquinoline]
O=S(=O)(c1ccc2c(c1)CNCC2)n1c2ccccc2c2ccccc21 [Example E26, 9-(1,2,3,4-tetrahydro-isoquinoline-7-sulfonyl)-9H-carbazole]
